Literature values, collected in US9943479B2, “Injectable liquid paracetamol formulation” (GENFARMA LABORATORIO S.L., priority 2006, dated 2018).
Values after ≈ are worked out from the molar mass of the structure shown. Like-named read-outs stand apart in the source and are kept apart here.

- solubility in aqueous medium (4° C.): ~8000 µg/mL (≈ 52.9 mM)
- solubility in aqueous medium (20° C.): ~12000 µg/mL (≈ 79.4 mM)
SMILES: CC(=O)Nc1ccc(O)cc1 [paracetamol, n-acetyl-4-aminophenol]
